Where two headings read alike, the source gives them in different places.
Experiments:
Type in all cases: binding
[1] = target: T1, FBW7^ARG (RLFBW7) alone (Homo sapiens, UniProt Q969H0, R505L); experiment: Counterscreen 1 ALPHAscreen with FBW7^ARG alone (CSRUN1/DCSRUN1); settings: dose-response counterscreen; for Emax: read-out: RLFBW7 ACT DCSRUN1 Averaged Max % Response
T1 construct: GST (TEV site and flexible linker) (N, cleaved yes); made in house; host or cells: SF9 insect cells (baculovirus)
Experimental: (§1) Studies in 384-well format were performed using the ENVISION system. Reagent concentrations (see FIG. 6A), order of addition, pH (see FIG. 6B), and reducing agent were altered with the goal of enhancing the dynamic range between wt-FBW7 (the positive control) and FBW7^ARG (FIG. 6 and not shown). Wt-FBW7 produced a signal 100× greater with phosphorylated cyclin E degron peptide compared with unphosphorylated, which represents the assay's maximum range (FIG. 6C). […] This assay thus detects the residual affinity of the FBW7^ARG-substrate interaction, which, as predicted, is stronger than wt-FBW7 protein with unphosphorylated cyclin E peptide. Concurrent with this primary assay, counter ALPHAscreens were developed which omitted either FBW7 or peptide (to eliminate hits that are general ALPHAscreen agonists), or used an irrelevant phosphopeptide (to eliminate compounds that simply augment binding to phosphopeptides). […]
(§2) The 77 hits were subjected to a dose-response assay in which each compound was tested in triplicate in a 10 point 3-fold dilutional series, to a maximum concentration of approximately 87 μM. Three screens were performed, using FBW7^ARG+pCycE (DRUN), FBW7^ARG (DCSRUN1), or pCycE alone (DCSRUN2). See TABLES 2, 3, and 4, respectively, and FIG. 10A. All of the assays performed extremely well, and threshold of 10% activation (relative to WT-FBW7+pCycE) was set as positive. […] Many hits fell into shared structure cluster ID groups, reinforcing the idea that they function as specific agonists (see below and TABLE 5).

[2] = target: T2, FBW7^ARG+pCycE (Homo sapiens, UniProt Q969H0, R505L); experiment: FBW7^ARG-cyclin E agonist ALPHAscreen (primary PRUN, confirmation CRUN1, dose-response DRUN); settings: for EC50 / Emax: DRUN dose-response; for Emax: relative to WT-FBW7+pCycE, read-out: FBW7 ACT Averaged Max % Response
T2 construct: GST (TEV site and flexible linker) (N, cleaved yes); made in house; host or cells: SF9 insect cells (baculovirus)
Excerpt: FBW7^ARG refers to a class of loss-of-function mutations of the of FBW7 ubiquitin ligase that target a key phosphate-binding arginine residue in the FBW7 substrate-binding domain. These mutations are commonly found in human cancers and promote tumorigenesis by impairing the interactions between FBW7 and its substrates, such as cyclin E and Myc. Described herein is a high throughput screen (HTS) to identify agonists, such as small molecules, that augment FBW7^ARG-substrate binding. In an embodiment, the HTS is based on the Amplified Luminescent Proximity Homogenous Assay (ALPHAscreen) because it detects protein-protein interactions with a large dynamic range. ALPHAscreen is a bead-based proximity assay wherein donor beads contain a photosensitizer, phthalocyanine, and acceptor beads contain thioxene, anthracene and rubrenein in sufficient quantities to generate a chemiluminescence/fluorescence reaction (FIG. 4A). Upon excitation with excitation illumination, such as light having a wavelength of 680 nm, of the donor beads, phthalocyanine converts ambient oxygen to singlet oxygen, which can diffuse approximately 200 nm within its 4-microsecond half-life. If an acceptor bead is in close proximity to an excited donor bead, singlet oxygen transfers its energy to the acceptor, resulting in emitted light at a broad bandwidth of −520-620 nm. The HTS-compatible FBW7/cyclin E ALPHAscreen assay described herein uses streptavidin coupled donor beads and Ni-chelate acceptor beads. In this assay, biotinylated cyclin E phosphopeptide and the His-tagged FBW7 mutant protein have high affinity for the donor and acceptor beads, respectively (FIG. 4B). A small molecule that is able to bridge the binding sites of the peptide and the mutant protein (or induce a conformational change that increases affinity of the protein for the peptide) will bring the donor and acceptor beads in close proximity to each other, resulting in an ALPHA signal. As designed, this assay format is a very sensitive, non-radioactive, homogenous “mix-and-read” format that is HT compatible in 384 and 1536 well formats.
In the 384-well screening assay, 10 uL of acceptor beads with 25 nM of the FBW7^ARG (RLFBW7) are dispensed to test wells; acceptor beads with 25 nM of the wt-FBW7 protein (WTFBW7) are dispensed to control wells. Test compounds are then added by pintool transfer and the mixture is incubated for 30 minutes. An additional 10 uL of donor beads with 25 nM cyclin E phosphopeptide is then added to all wells and the plate is incubated for 4 hours before the ALPHA signal is measured.
In preparation for large-scale screening, the assay was miniaturized to a 1536-well format. The miniaturized screen performed outstandingly in all respects. The screen was enhanced with respect to several parameters and assayed its performance using mutant FBW7 and wt-FBW7, as well as non-specific assay agonists. […] For example, the following Z′-scores/FBW7 concentrations were obtained: 6.25 nM/Z′=0.62, 12.5 nm/Z′=0.85, 25.0 nM/Z′=0.84.
1. Add 2.5 uL of RLFBW7/cycE˜P/Ni beads: Final [25 nM/25 nM/10 ug/ml].
2. Add 2.5 uL of WTFBW7/cycE˜P/Ni beads: Final [25 nM/25 nM/10 ug/ml].
4. Add 2.5 uL of SA beads to all wells Final [10 ug/ml],
5. Add 30 nL of compounds,
6. Read ALPHAscreen on Envision
The large-scale FBW7 agonist ALPHAscreen was completed using FBW7^ARG and a phosphorylated cyclin E (pCycE) degron peptide. Wt-FBW7+pCycE-peptide was the “high control”, and Wt-FBW7+unphosph. CycE peptide was the “low control”. The screen was performed on the 645,000-compound Scripps Diversity Library using 1536-well format and drug concentrations of 26.1 μM. An algorithm aided hit identification based on the average percent activation for all compounds and their standard deviation.
A confirmation assay of all 853 compounds in triplicate using a single concentration (26.1 μM). […]

[3] = tested on: pCycE alone; experiment: Counterscreen 2 ALPHAscreen with cyclin E phosphopeptide alone (CSRUN2/DCSRUN2); settings: for CyCEP ACT DCSRUN2 Averaged Max % Response: activation relative to WT-FBW7+pCycE, averaged maximum; for EC50: dose-response, triplicate, 10 point 3-fold dilutional series, read-out: CyCEP ACT DCSRUN2 Final EC50
Experimental: as §1, §2

[4] = raw curve fit, read-out: RLFBW7 ACT DCSRUN1 EC50 Curve Fit Raw
[5] = read-out: RLFBW7 ACT DCSRUN1 Final EC50
[6] = raw curve fit, read-out: FBW7 ACT EC50 Curve Fit Raw, Molar
[7] = triplicate, 10 point 3-fold dilution, max approx. 87 μM, read-out: FBW7 ACT Final EC50, Molar
[8] = confirmation assay, triplicate, single concentration 26.1 μM, read-out: FBW7 ACT CRUN1 Avg % Response and Stdev
[9] = primary screen, 1536-well, 26.1 μM, FBW7^ARG + pCycE degron peptide, high control wt-FBW7+pCycE, read-out: FBW7 ACT PRUN % Response

T1 sequence (Q969H0 64-707 R505L): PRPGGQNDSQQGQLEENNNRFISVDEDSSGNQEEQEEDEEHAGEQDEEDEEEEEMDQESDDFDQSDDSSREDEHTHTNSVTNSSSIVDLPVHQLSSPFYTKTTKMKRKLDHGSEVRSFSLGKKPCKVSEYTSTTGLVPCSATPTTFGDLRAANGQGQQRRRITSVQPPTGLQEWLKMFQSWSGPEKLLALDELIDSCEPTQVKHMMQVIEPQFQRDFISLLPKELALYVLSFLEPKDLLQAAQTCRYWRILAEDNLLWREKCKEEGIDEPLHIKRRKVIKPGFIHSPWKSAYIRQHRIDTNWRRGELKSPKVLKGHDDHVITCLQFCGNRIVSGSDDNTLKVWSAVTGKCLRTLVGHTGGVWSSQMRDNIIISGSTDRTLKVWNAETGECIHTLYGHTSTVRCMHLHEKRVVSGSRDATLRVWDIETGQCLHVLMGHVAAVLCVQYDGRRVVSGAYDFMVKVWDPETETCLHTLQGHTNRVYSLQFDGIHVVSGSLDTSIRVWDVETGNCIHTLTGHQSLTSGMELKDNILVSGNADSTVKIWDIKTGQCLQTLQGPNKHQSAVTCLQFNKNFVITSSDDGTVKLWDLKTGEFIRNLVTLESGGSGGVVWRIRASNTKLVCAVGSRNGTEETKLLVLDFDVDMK
T1 sequence (P63208 2-163 partner): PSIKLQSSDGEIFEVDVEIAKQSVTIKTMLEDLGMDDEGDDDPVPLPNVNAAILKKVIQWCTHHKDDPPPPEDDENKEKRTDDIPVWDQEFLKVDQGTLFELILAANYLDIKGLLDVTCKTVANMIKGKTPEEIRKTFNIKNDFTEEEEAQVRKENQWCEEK
T2 sequence (Q969H0 64-707 R505L): as the sequence (Q969H0 64-707 R505L) above
T2 sequence (P63208 2-163 partner): as the sequence (P63208 2-163 partner) above

**Q.** For CN(C)CCN(C)c1nc([C@H](N)Cc2cccc(F)c2)cc2ccc(-c3cn[nH]c3)cc12.O=C(O)C(F)(F)F [SR-00000006284-1], which EC50 [1, 4] is on record?
**A.** The EC50 was 2.2 µM.

**Q.** What about the Emax [1] of the same compound?
**A.** Its Emax is 0.27%.

**Q.** And the EC50 [1, 5]?
**A.** The EC50 was greater than 16.3 µM.

**Q.** What about the EC50 [2, 6] of the same compound?
**A.** The EC50 was 7.2 µM.

**Q.** And the Emax [2]?
**A.** The Emax was 15.4%.

**Q.** What about the EC50 [2, 7] of the same compound?
**A.** Its EC50 is greater than 16.3 µM.

**Q.** And the activation at 26.1 µM [2, 8]?
**A.** The activation at 26.1 µM was 7.7 ± 0.45%.

**Q.** What about the activation at 26.1 µM [2, 9] of the same compound?
**A.** The activation at 26.1 µM was 2.73%.

**Q.** And the “CyCEP ACT DCSRUN2 Averaged Max % Response” value [3]?
**A.** Its value is 0.41%.

**Q.** And the EC50 [3]?
**A.** The EC50 was greater than 16.3 µM.

**Q.** Which EC50 [1, 4] does the source give for COc1cccc(C=O)c1OC(=O)c1cccc(Cl)c1 [SR-01000242625-1] here?
**A.** Its EC50 is 0.0369 µM.

**Q.** And the Emax [1]?
**A.** Its Emax is 1.05%.

**Q.** And the EC50 [1, 5]?
**A.** The EC50 was greater than 65.3 µM.

**Q.** And the EC50 [2, 6]?
**A.** Its EC50 is 26.7 µM.

**Q.** What about the Emax [2] of the same compound?
**A.** The Emax was 33.6%.

**Q.** What about the EC50 [2, 7] of the same compound?
**A.** Its EC50 is greater than 65.3 µM.

**Q.** What about the activation at 26.1 µM [2, 8] of the same compound?
**A.** The activation at 26.1 µM was 9.26 ± 0.67%.

**Q.** What about the activation at 26.1 µM [2, 9] of the same compound?
**A.** Its activation at 26.1 µM is 11.9%.

**Q.** And the “CyCEP ACT DCSRUN2 Averaged Max % Response” value [3]?
**A.** Its value is 0.61%.

**Q.** And the EC50 [3]?
**A.** Its EC50 is greater than 65.3 µM.

**Q.** What does the source list for COc1cccc(/C=N/c2cnn(C)c2C(N)=O)c1O [SR-01000314216-1]?
**A.** Emax [1]: 0.25%; EC50 [1, 5]: > 65.3 µM; EC50 [2, 6]: 26.4 µM; Emax [2]: 22.7%; EC50 [2, 7]: > 65.3 µM; activation at 26.1 µM [2, 8]: 4.06 ± 0.07%; activation at 26.1 µM [2, 9]: 3.64%; CyCEP ACT DCSRUN2 Averaged Max % Response [3]: 0.18%; EC50 [3]: > 65.3 µM

**Q.** What does the source list for Cc1cccc(N2CCN(C(=O)CCc3nc(C4=CCN(C)CC4)no3)CC2C)c1 (centres unmarked) [SR-01000140019-1]?
**A.** Emax [1]: -0.213%; Emax [2]: 10.2%; activation at 26.1 µM [2, 8]: 3.38 ± 0.3%; activation at 26.1 µM [2, 9]: 4.08%; CyCEP ACT DCSRUN2 Averaged Max % Response [3]: 0.31%; EC50 [3]: > 65.3 µM

**Q.** Cc1ccc2nc(SCC(=O)Nc3ncc(C)s3)c(C#N)cc2c1 [SR-01000340506-1] was tested. Which EC50 [1, 4] did it give?
**A.** Its EC50 is 16.2 µM.

**Q.** What about the Emax [1] of the same compound?
**A.** Its Emax is 35.6%.

**Q.** What about the EC50 [1, 5] of the same compound?
**A.** Its EC50 is greater than 65.3 µM.

**Q.** What about the EC50 [2, 6] of the same compound?
**A.** Its EC50 is 14.9 µM.

**Q.** What about the Emax [2] of the same compound?
**A.** Its Emax is 10.7%.

**Q.** And the EC50 [2, 7]?
**A.** Its EC50 is greater than 65.3 µM.

**Q.** And the activation at 26.1 µM [2, 8]?
**A.** The activation at 26.1 µM was 3.87 ± 0.19%.

**Q.** And the activation at 26.1 µM [2, 9]?
**A.** The activation at 26.1 µM was 3.77%.

**Q.** And the “CyCEP ACT DCSRUN2 Averaged Max % Response” value [3]?
**A.** Its value is 0.24%.

**Q.** And the EC50 [3]?
**A.** The EC50 was greater than 65.3 µM.

**Q.** CCOc1ccc(Br)cc1C1C2=C(CCCC2=O)N(CC(=O)O)C2=C1C(=O)CCC2 [SR-01000476712-1] was tested. Which EC50 [1, 4] did it give?
**A.** Its EC50 is 0.0052 µM.

**Q.** And the Emax [1]?
**A.** Its Emax is 1.87%.

**Q.** And the EC50 [1, 5]?
**A.** The EC50 was greater than 43.6 µM.

**Q.** And the EC50 [2, 6]?
**A.** The EC50 was 0.0054 µM.

**Q.** And the Emax [2]?
**A.** The Emax was 8.52%.

**Q.** What about the EC50 [2, 7] of the same compound?
**A.** Its EC50 is greater than 43.6 µM.

**Q.** What about the activation at 26.1 µM [2, 8] of the same compound?
**A.** The activation at 26.1 µM was 3.84 ± 1.06%.

**Q.** And the activation at 26.1 µM [2, 9]?
**A.** The activation at 26.1 µM was 1.93%.

**Q.** What about the “CyCEP ACT DCSRUN2 Averaged Max % Response” value [3] of the same compound?
**A.** Its value is 2.30%.

**Q.** What about the EC50 [3] of the same compound?
**A.** The EC50 was greater than 43.6 µM.

**Q.** For COc1ccccc1-c1ccc(=O)n(CC(=O)Nc2ccc(C(=O)N3CCCC3)cc2)n1 [SR-01000332536-1], which EC50 [1, 4] is on record?
**A.** Its EC50 is 6.3 µM.

**Q.** What about the Emax [1] of the same compound?
**A.** Its Emax is 0.2%.

**Q.** And the EC50 [1, 5]?
**A.** Its EC50 is greater than 65.3 µM.

**Q.** What about the EC50 [2, 6] of the same compound?
**A.** Its EC50 is 19.1 µM.

**Q.** What about the Emax [2] of the same compound?
**A.** Its Emax is 18%.

**Q.** And the EC50 [2, 7]?
**A.** The EC50 was greater than 65.3 µM.

**Q.** What about the activation at 26.1 µM [2, 8] of the same compound?
**A.** Its activation at 26.1 µM is 4.43 ± 0.25%.

**Q.** And the activation at 26.1 µM [2, 9]?
**A.** The activation at 26.1 µM was 4.09%.

**Q.** And the “CyCEP ACT DCSRUN2 Averaged Max % Response” value [3]?
**A.** The value was 0.12%.

**Q.** What about the EC50 [3] of the same compound?
**A.** Its EC50 is greater than 65.3 µM.
